Each block holds one compound with its values, some of them ahead of it.
Assays:
BcGH88 = biological target: T1, BcGH88 (Bacteroides caccae, UniProt A0A413IVG2); assay: loss of absorbance at […] nm; format: biochemical; conditions: only kcat/Km determined; 100 mM Tris pH 7.4, 37 °C
T1 construct: residues 31-433, N-terminal His6 tag with thrombin site, E. coli
T1 sequence (A0A413IVG2 31-433): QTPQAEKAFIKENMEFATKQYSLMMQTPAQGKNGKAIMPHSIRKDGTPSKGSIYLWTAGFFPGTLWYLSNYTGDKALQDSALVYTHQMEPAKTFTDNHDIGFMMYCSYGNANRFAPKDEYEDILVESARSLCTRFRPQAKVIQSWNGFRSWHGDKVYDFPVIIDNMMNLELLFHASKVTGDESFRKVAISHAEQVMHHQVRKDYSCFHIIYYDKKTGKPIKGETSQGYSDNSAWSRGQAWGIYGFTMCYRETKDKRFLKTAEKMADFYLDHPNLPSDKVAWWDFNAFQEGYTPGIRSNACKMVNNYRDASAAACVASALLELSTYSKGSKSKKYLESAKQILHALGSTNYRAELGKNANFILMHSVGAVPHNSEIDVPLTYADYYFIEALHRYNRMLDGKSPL

BcGDH (GH154, BcGH154) = biological target: T2, BcGDH (GH154, BcGH154) (Bacteroides caccae, UniProt I9ECR6); assay: absorbance at […] nm; LC-ESI-MS of product; format: biochemical; conditions: dehydration to 4,5-unsaturated product; only kcat/Km determined; 100 mM Tris pH 7.4, 25 °C
T2 construct: gene HMPREF1061_03832; residues 24-423, N-terminal His6-thrombin tag (cleaved for crystallography), E. coli, homotetramer; site completed by Y401 of a neighbouring monomer
T2 sequence (I9ECR6 24-423): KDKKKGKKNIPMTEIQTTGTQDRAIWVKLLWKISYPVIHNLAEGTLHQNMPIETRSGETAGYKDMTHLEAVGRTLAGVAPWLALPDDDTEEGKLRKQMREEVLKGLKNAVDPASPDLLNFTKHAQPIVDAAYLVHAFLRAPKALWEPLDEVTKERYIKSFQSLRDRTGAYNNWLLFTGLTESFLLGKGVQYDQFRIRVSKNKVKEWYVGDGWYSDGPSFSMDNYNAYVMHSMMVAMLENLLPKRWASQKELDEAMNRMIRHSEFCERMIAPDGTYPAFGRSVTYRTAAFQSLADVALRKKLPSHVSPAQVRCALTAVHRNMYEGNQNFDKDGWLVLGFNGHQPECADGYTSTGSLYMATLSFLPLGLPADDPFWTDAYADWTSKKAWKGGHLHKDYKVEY

[1] = biological target: BcGDH (β-D-glucuronate dehydratase from Bacteroides caccae PUL25, previously classified as GH154) (Bacteroides caccae (strain ATCC 43185)); assay: crystal structure; unliganded BcGDH, spacegroup P2_(1), tetramer in the asymmetric unit; crystals at 18 °C from 26 g/L protein, 220 mM KCl, 24% PEG 3350; the same tetramer seen in four further unrefined crystal forms
[2] = biological target: BcGDH R285A mutant (Bacteroides caccae (strain ATCC 43185)); assay: crystal structure; BcGDH R285A soaked in 50 mM chondrosine, spacegroup P2_(1)2_(1)2_(1), tetramer in the asymmetric unit; 18 g/L protein, 0.25 M sodium iodide, 5 to 13% glycerol, 8 to 13% PEG 3350

Compound: CC(=O)N[C@H]1C(O)O[C@H](CO)[C@H](O)[C@@H]1O[C@@H]1OC(C(=O)O)=C[C@H](O)[C@H]1O (some centres unmarked) [CSΔ0S]
loss of absorbance at 232 nm (BcGH88): BcGH88 had activity on CSΔ0S and CSΔ6S with kcat/Km values

Compound: CC(=O)N[C@H]1C(O)O[C@H](COS(=O)(=O)O)[C@H](O)[C@@H]1O[C@@H]1OC(C(=O)O)=C[C@H](O)[C@H]1O (some centres unmarked) [CSΔ6S]
loss of absorbance at 232 nm (BcGH88): BcGH88 had activity on CSΔ0S and CSΔ6S with kcat/Km values

Compound: N[C@H]1C(O)O[C@H](CO)[C@H](O)[C@@H]1O[C@@H]1O[C@H](C(=O)O)[C@@H](O)[C@H](O)[C@H]1O (some centres unmarked) [chondrosine]
absorbance at 232 nm; LC-ESI-MS of product (BcGDH (GH154, BcGH154)): The absorbance increased in a time-dependent manner, with the rate of increase dependent upon the chondrosine

stoichiometry N [1]: 4
Compound: BcGDH (β-D-glucuronate dehydratase from Bacteroides caccae PUL25, previously classified as GH154) (enzyme)

stoichiometry N [2]: 4
Compound: BcGDH R285A mutant (enzyme)

— article PMC12269599, “Analysis of chondroitin degradation by components of a Bacteroides caccae polysaccharide utilization locus” (The Journal of Biological Chemistry, 2025)
